Source: patent US5932554A (priority 1997, dated 1999)

Molecular target: cholera toxin (Vibrio cholerae serotype O1, UniProt P01556)
Experiment: biochemical
Format: binding, V. cholerae

Sequence of cholera toxin (P01556 22-124 limits assumed): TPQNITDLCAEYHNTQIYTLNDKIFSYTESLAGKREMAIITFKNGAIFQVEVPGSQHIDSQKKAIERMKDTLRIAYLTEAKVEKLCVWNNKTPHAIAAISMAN

OC[C@H]1OC(O)[C@H](O)[C@@H](O)[C@H]1O (stereo partly drawn) [D-galactose] gave an IC50 of 30 mM.
